Read-outs that look alike come from different tables or passages of the source.
Columns and labels:
[1] = tested on: ADP-induced platelet aggregation; test: In vitro inhibition of ADP-induced platelet aggregation (Born technique, optical density, platelet rich plasma); format: cell-based, rat
Method: Rat blood was collected into 3.0 percent trisodium citrate solution (1:10) by cardiac puncture undeer methoxyflurane anesthesia. The blood was centrifuged at 120 g for 10 minutes at room temperature and the supernatant platelet rich plasma was removed and diluted with lactated Ringer's solution containing the […] aggregation inhibiting agent (1.0:1.5). Samples of 1.0 ml were pipetted into plastic test tubes and incubated for three minutes. Plastic equipment was used for all procedures. The concentration of the thiadiazole compound in micromoles inhibiting ADP aggregation by 50 percent (IC50) was determined using changes in optical density as a indicium of platelet aggregation.

[2] = tested on: ADP-induced emboli / platelet aggregation; test: Protection of mice from ADP challenge (inclined screen test); format: in vivo; conditions: 60 mg/kg i.p.; ten mice; ADP i.v. one hour after compound
Method: Emboli formed in the vascular system of mice in response to the administration of ADP cause a stroke-like response that prevents mice from staying on an inclined screen. To illustrate the platelet aggregation inhibition effect of the 1,3,4-thiadiazoles, ten mice were dosed by intraperitoneal injection with 60 mgs per kilogram of body weight of the compound 2,5-bis(2-(diethylamino)ethylthio)-1,3,4-thiadiazole di-p-toluenesulfonic acid salt (Example 3). One hour after compound administration, the mice were challenged with ADP (0.05 M mole/kg) by injection via the tail vein and placed on an inclined screen. Unprotected control mice not injected with thiadiazole were unable to maintain their position on the screen when given a similar injection of ADP.

[3] = tested on: ADP induced platelet aggregation; test: In vivo platelet aggregation measurement, filter occlusion technique (Broersma et al.); set-up: species or system beagle dogs; conditions: 20 mg/kg, intravenous, after 4 hours
Method: Measurement of platelet aggregation in vivo was carried out using the technique described by Broersma, et al., Thomb. diath. Haemorrhag. 29, 201 (1973). Such determinations are based upon the measurement of the blood pressure proximal to a filter with 53 micron openings through which arterial blood flows. Platelet aggregation partially obstructs the filter with time causing a change in the pressure which is proportional to the degree of platelet aggregation (thrombosis).
Fasted male beagle dogs were anesthetized with sodium pentobarbital (35 mg/kg), heparinized (16.5 μ/kg, i.v.) and tested for platelet function using aggregometry. Compounds were administered intravenously in solutions having the pH adjusted to 7.4. The solution was infused at a rate of 15.3 ml/min to total volume of 5 ml/kg of body weight. Thrombus formation was observed using the filter occlusion technique outlined above. Platelet count, hematocrit, blood pressure, and heart rate were also measured.

[4] = tested on: tobacco black shank; test: Control of tobacco black shank, soil drench; format: in vivo

CC(=O)Oc1ccccc1C(=O)O [Aspirin, reference compound]
IC50 ([1]; Rattus norvegicus, Platelet, read-out: IC50 ADPmax): 12.8 µM
IC50 ([1]; Rattus norvegicus, Platelet, read-out: IC50 ADPslope): 18.1 µM

CCN(CC)CCSc1nnc(SCCN(CC)CC)s1.Cc1ccc(S(=O)(=O)O)cc1.Cc1ccc(S(=O)(=O)O)cc1 [Example 3, 2,5-bis(2-(diethylamino)ethylthio)-1,3,4-thiadiazole di-p-toluenesulfonic acid salt]
mice protected from ADP challenge and able to remain on the screen [2]: 40%

C1CN(CCSc2nnc(SCCN3CCOCC3)s2)CCO1 [2,5-bis-(2-(4-morpholinyl)ethylthio)-1,3,4-thiadiazole]
reduction of ADP induced platelet aggregation in the dog [3]: 36%

C(CSc1nnc(SCCCN2CCOCC2)s1)CN1CCOCC1 [Example 1, 2,5-bis(3-(4-morpholinyl)-propylthio)-1,3,4-thiadiazole]
activity relative to aspirin in the inhibition of ADP induced platelet aggregation ([1]; compared with aspirin, conditions of this test): about twice as active as aspirin
IC50 ([1]; inhibits maximum ADP-induced platelet aggregation by 50%, rat platelet rich plasma, read-out: IC50 ADPmax): 6.28 µM
IC50 ([1]; inhibits the speed of the platelet aggregation by 50%, rat platelet rich plasma, read-out: IC50 ADPslope): 9.41 µM

CCN(CC)CCSc1nnc(N)s1 [Example 2, 2-amino-5-(2-(diethylamino)ethylthio)-1,3,4-thiadiazole]
control and killing of tobacco black shank (in words) [4]: effective in the control and killing of tobacco black shank
control of the disease (tobacco black shank) ([4]; solution of 25 ppm): 100%
